Laboratory results reported in the supplement of paper PMC11451515.

System: P12-Ichikawa
Experiment: cell viability relative to DMSO control; higher = less cytotoxic
Conditions: 48 h
Method in brief: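 Library compounds in DMSO were pin-dosed into 1536-well plates (5 μl) holding NOMO1 or SEM (500 cells/well) or P12-Ichikawa (1000 cells/well) leukemia cells, across an 11-point threefold series of 47 μM to 0.79 nM. Each cell line had been adapted for at least four passages in each medium. CellTiter-Glo One luminescence was read after 48 h at 37°C. Viability is the per-plate percentage relative to DMSO wells, with cell-free wells as background.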

[1] = HPLM + 10% dialyzed FBS, 0.000781 µM
[2] = HPLM + 10% dialyzed FBS, 0.00234 µM
[3] = HPLM + 10% dialyzed FBS, 0.00702 µM
[4] = HPLM + 10% dialyzed FBS, 0.0211 µM
[5] = HPLM + 10% dialyzed FBS, 0.0632 µM
[6] = HPLM + 10% dialyzed FBS, 0.19 µM
[7] = HPLM + 10% dialyzed FBS, 0.569 µM
[8] = HPLM + 10% dialyzed FBS, 1.71 µM
[9] = HPLM + 10% dialyzed FBS, 5.12 µM
[10] = HPLM + 10% dialyzed FBS, 15.4 µM
[11] = HPLM + 10% dialyzed FBS, 46.1 µM
[12] = RPMI 5 mM glucose + 10% FBS, 0.000781 µM
[13] = RPMI 5 mM glucose + 10% FBS, 0.00234 µM
[14] = RPMI 5 mM glucose + 10% FBS, 0.00702 µM
[15] = RPMI 5 mM glucose + 10% FBS, 0.0211 µM
[16] = RPMI 5 mM glucose + 10% FBS, 0.0632 µM
[17] = RPMI 5 mM glucose + 10% FBS, 0.19 µM
[18] = RPMI 5 mM glucose + 10% FBS, 0.569 µM
[19] = RPMI 5 mM glucose + 10% FBS, 1.71 µM
[20] = RPMI 5 mM glucose + 10% FBS, 5.12 µM
[21] = RPMI 5 mM glucose + 10% FBS, 15.4 µM
[22] = RPMI 5 mM glucose + 10% FBS, 46.1 µM
[23] = RPMI 5 mM glucose + 10% dialyzed FBS, 0.000781 µM
[24] = RPMI 5 mM glucose + 10% dialyzed FBS, 0.00234 µM
[25] = RPMI 5 mM glucose + 10% dialyzed FBS, 0.00702 µM
[26] = RPMI 5 mM glucose + 10% dialyzed FBS, 0.0211 µM
[27] = RPMI 5 mM glucose + 10% dialyzed FBS, 0.0632 µM
[28] = RPMI 5 mM glucose + 10% dialyzed FBS, 0.19 µM
[29] = RPMI 5 mM glucose + 10% dialyzed FBS, 0.569 µM
[30] = RPMI 5 mM glucose + 10% dialyzed FBS, 1.71 µM
[31] = RPMI 5 mM glucose + 10% dialyzed FBS, 5.12 µM
[32] = RPMI 5 mM glucose + 10% dialyzed FBS, 15.4 µM
[33] = RPMI 5 mM glucose + 10% dialyzed FBS, 46.1 µM

SMILES | cell viability [1] | cell viability [2] | cell viability [3] | cell viability [4] | cell viability [5] | cell viability [6] | cell viability [7] | cell viability [8] | cell viability [9] | cell viability [10] | cell viability [11] | cell viability [12] | cell viability [13] | cell viability [14] | cell viability [15] | cell viability [16] | cell viability [17] | cell viability [18] | cell viability [19] | cell viability [20] | cell viability [21] | cell viability [22] | cell viability [23] | cell viability [24] | cell viability [25] | cell viability [26] | cell viability [27] | cell viability [28] | cell viability [29] | cell viability [30] | cell viability [31] | cell viability [32] | cell viability [33]
FC1=CC=C(CN2\C=C/C=C(/C(=O)N[C@@H](COC3=CC4=C(NC(=O)N4)C=C3)C5=CC=CC=C5)C2=O)C=C1F | 89.1% | 97.2% | 98.9% | 96.2% | 104% | 98.8% | 97.3% | 89.2% | 76.4% | 70.1% | 64.7% | 82.9% | 90.2% | 85.9% | 86.8% | 88.9% | 88.9% | 86.9% | 72.6% | 53.9% | 50.5% | 44.8% | 81.6% | 89.4% | 90.5% | 94.6% | 89.3% | 94.5% | 79.9% | 76.6% | 58.5% | 54.2% | 45.4%
CN(C)/[N+]([O-])=N/Oc1cc(ON[N+](=O)N2CCN(C(=O)c3cc(Cc4n[nH]c(=O)c5ccccc45)ccc3F)CC2)c([N+](=O)[O-])cc1[N+](=O)[O-] | 102% | 105% | 111% | 112% | 120% | 109% | 106% | 106% | 105% | 106% | 99.4% | 106% | 117% | 116% | 120% | 117% | 121% | 120% | 130% | 108% | 114% | 119% | 97% | 96.2% | 115% | 101% | 109% | 108% | 120% | 111% | 100% | 106% | 103%
CCCNCC(O)COc1ccccc1C(=O)CCc1ccccc1 (stereo not given) | 101% | 98.9% | 107% | 103% | 111% | 106% | 114% | 112% | 118% | 114% | 115% | 112% | 105% | 110% | 116% | 114% | 108% | 113% | 115% | 123% | 128% | 110% | 93.4% | 103% | 98.1% | 103% | 102% | 113% | 114% | 113% | 112% | 106% | 98.4%
NC1CCC(Nc2nc(Nc3ccc(C(=O)N4CCCCC4)cc3)c3ncn(-c4cccc(F)c4)c3n2)CC1 (stereo not given) | 110% | 112% | 115% | 117% | 112% | 126% | 120% | 121% | 124% | 137% | 134% | 116% | 119% | 120% | 125% | 120% | 128% | 125% | 124% | 126% | 139% | 123% | 112% | 108% | 120% | 119% | 121% | 123% | 118% | 118% | 129% | 139% | 130%
CO[C@H]1/C=C/O[C@@]2(C)Oc3c(C)c(O)c4c(O)c(c(/C=N/N5CCN(C)CC5)c(O)c4c3C2=O)NC(=O)/C(C)=C\C=C\[C@H](C)[C@H](O)[C@@H](C)[C@@H](O)[C@@H](C)[C@H](OC(C)=O)[C@@H]1C | 116% | 117% | 124% | 120% | 127% | 114% | 108% | 110% | 99.8% | 94.9% | 63.7% | 128% | 111% | 118% | 118% | 124% | 112% | 123% | 116% | 98.3% | 89.9% | 75.4% | 124% | 120% | 123% | 123% | 122% | 111% | 109% | 115% | 93.2% | 82% | 70.6%
Cn1cnc(-c2cc3nccc(Oc4ccc(NC(=S)NC(=O)Cc5ccccc5)cc4F)c3s2)c1 | 79% | 85.6% | 77.3% | 92.7% | 91.4% | 91.5% | 94.1% | 87.8% | 83.9% | 71.8% | 15.2% | 80.9% | 82.9% | 80.5% | 87.1% | 84.7% | 85.2% | 87.1% | 92.6% | 82.7% | 58.5% | 7.61% | 80.4% | 87.6% | 83.1% | 91.8% | 96.9% | 93.7% | 85.6% | 95.9% | 82.6% | 66.3% | 15.4%
CCCC1=N[N](C)C2=C1\N=C(/NC2=O)C3=CC(=CC=C3OCC)[S+]([O-])(=O)N4CCN(C)CC4 | 82.3% | 92.6% | 89.5% | 88.6% | 90.7% | 89.5% | 88.2% | 80.4% | 86.5% | 84% | 50.7% | 81.4% | 87.3% | 89.2% | 80.9% | 77.5% | 87.6% | 84.1% | 82.1% | 85.2% | 82.4% | 20.7% | 81.4% | 84.5% | 80.8% | 86.6% | 82.5% | 86.8% | 79.7% | 85.1% | 77.8% | 79.2% | 33.1%
CN1C2=CC(=O)/C(=N/NC(N)=O)C=C2CC1S(=O)(=O)[O-].[Na+] (stereo not given) | 105% | 112% | 112% | 112% | 108% | 113% | 115% | 115% | 110% | 112% | 112% | 103% | 112% | 108% | 112% | 109% | 118% | 118% | 115% | 113% | 112% | 106% | 105% | 108% | 105% | 108% | 111% | 113% | 123% | 112% | 110% | 117% | 110%
CN(CCOc1ccc(NS(C)(=O)=O)cc1)CCc1ccc(NS(C)(=O)=O)cc1 | 108% | 114% | 119% | 115% | 126% | 127% | 127% | 111% | 118% | 123% | 121% | 118% | 127% | 116% | 126% | 121% | 129% | 131% | 126% | 125% | 136% | 126% | 113% | 114% | 114% | 114% | 117% | 129% | 123% | 122% | 120% | 120% | 115%
COc1cccc2c(NCc3ccccc3)nc(-n3c(N)nc4ccccc43)nc12 | 99% | 103% | 108% | 107% | 108% | 112% | 109% | 111% | 94.3% | 58.3% | 8.25% | 94.8% | 108% | 95% | 115% | 111% | 103% | 111% | 110% | 114% | 63.7% | 6.11% | 106% | 100% | 111% | 99.6% | 112% | 114% | 119% | 111% | 102% | 76.6% | 10.1%
FC(F)(F)C1=CC=C2C(SCCCCCO\C3=C\O\C(CN4CCOCC4)=C/C3=O)=CC=NC2=C1 | 107% | 122% | 123% | 120% | 129% | 126% | 132% | 123% | 123% | 107% | 88.1% | 110% | 119% | 109% | 114% | 113% | 109% | 125% | 121% | 111% | 94.4% | 66% | 112% | 118% | 113% | 116% | 130% | 116% | 127% | 119% | 115% | 104% | 78%
CN1/C=C(\N=C(NC2=CC=C(C=C2)C(=O)N3CCOCC3)/C1=O)/C4=C(C)C(=CC=C4)NC(=O)C5=CC=C(C=C5)C(C)(C)C | 107% | 108% | 108% | 101% | 104% | 103% | 106% | 98.1% | 98.3% | 88.6% | 89.5% | 102% | 95.4% | 107% | 91.2% | 106% | 110% | 97.9% | 100% | 98.5% | 95.4% | 94.4% | 106% | 111% | 103% | 101% | 108% | 106% | 105% | 106% | 107% | 93.7% | 85.7%
CCc1c(O)cc(O)c(C(=O)c2ccc(OCCN3CCOCC3)c(OC)c2)c1CC(=O)N(CCOC)CCOC | 102% | 105% | 118% | 112% | 112% | 105% | 104% | 87.6% | 59.9% | 41.1% | 40.9% | 100% | 101% | 113% | 105% | 108% | 103% | 93.5% | 78% | 41.1% | 32.7% | 35.4% | 106% | 102% | 105% | 110% | 110% | 104% | 85% | 84.5% | 42.6% | 32% | 35%
CC(Cc1ccc(O)c(O)c1)(NN)C(=O)O (stereo not given) | 110% | 112% | 107% | 111% | 130% | 114% | 105% | 102% | 100% | 101% | 78.5% | 102% | 113% | 122% | 120% | 113% | 111% | 108% | 100% | 112% | 113% | 65.3% | 107% | 116% | 115% | 115% | 114% | 109% | 108% | 104% | 110% | 110% | 55.7%
OCCNC1CCCc2c1[nH]c1ccc(-c3ccccc3)cc21 (stereo not given) | 100% | 107% | 106% | 105% | 110% | 110% | 115% | 108% | 111% | 78.4% | 16.6% | 103% | 111% | 109% | 108% | 114% | 108% | 114% | 118% | 110% | 73.5% | 18.2% | 105% | 111% | 113% | 109% | 107% | 114% | 119% | 114% | 111% | 80.4% | 28.9%
